Results: PMC11434354, “Metabolic and Pharmacokinetic Profiling Studies of N, N-Dimethylaniline-Heliamine in Rats by UHPLC-Q-Orbitrap MS/MS” (Molecules, 2024)

Assay: Metabolite identification of DH in rat plasma, urine, feces and rat liver microsomes by UHPLC-Q-Orbitrap MS/MS
Type: in vivo
Set-up: key: F*: feces; U*: urine; P*: plasma; LM*: Liver microsome
Settings: rat plasma
Protocol: For the analysis of DH metabolites, the same UHPLC-MS/MS system was used for the plasma analysis, and the ACQUIT UHPLC BEH C18 column was also utilized. Mobile phase A consisted of 0.1% formic acid in water (v/v), while mobile phase B comprised acetonitrile. The flow rate was maintained at 0.2 mL/min, with a 10 µL injection volume. The column temperature was kept constant at 35 °C, and the RS autosampler temperature was maintained at 10 °C. The gradient elution was as follows: 0–3 min(5%B), 3–11 min (7%B), 11–18 min (7%B), and 18–45 min (30%B). A full MS/dd MS^2 mode in positive heated electrospray ionization (HESI) with 140,000 (for MS) and 17,500 (for MS/MS) resolutions was used for the Q–Exactive Plus Orbitrap MS. The compounds identified in full MS/dd MS^2 mode will be scanned using PRM scanning. The following MS parameters were employed: AGC target, 1 × 10^6; Maximum IT, 100 ms; Spray voltage, 3.2 kV; Capillary temp, 320 °C; S-lens RF level, 55; HCD Energy 20, 40, and 60.
Rat liver microsomes were used for in vitro experiments to study DH metabolism in rats more quickly and easily. After that, the cofactors of phases I and II were added to create the phase I and phase II metabolic systems. The composition of the reagent kit and the procedure can be found in our previous work.
For the plasma study, 100 µL of plasma was obtained from rats at 0.5, 1, 2, and 4 h after medicine administration. Then, 300 µL of acetonitrile was added to the above plasma, vortexed for 1 min, and centrifuged for 7 min. The supernatant was collected, and the remaining liquid was dried using nitrogen gas at 40 °C. The blow-dried samples were re-dissolved in 100 µL methanol, sonicated for 1 min, and centrifuged for 7 min.
Urine was collected during the period spanning from 0 to 48 h following administration, with each period’s combined urine comprising 10 mL and 30 mL of acetonitrile added thereto. After a 10 min interval of sonication, the urine samples were transferred into 1.5 mL centrifuge tubes, vortexed for 1 min, and then centrifuged at a speed of 14,000 rpm for 10 min. Successively, the supernatant was merged and subjected to drying by nitrogen gas at 40 °C. The blow-dried samples were re-dissolved in 100 µL of methanol, sonicated for 1 min, and centrifuged for 7 min.
For the fecal study, feces were collected within 0–48 h following administration, dried to powder at room temperature in a shaded area, and combined to yield 8 mL per period, to which 40 mL of acetonitrile was added. Following 30 min of sonication, the samples were transferred to 1.5 mL centrifuge tubes and centrifuged at 14,000 rpm for 10 min. The supernatant was collected and dried with nitrogen at 40 °C before analysis via UHPLC-MS/MS. Before analysis, the blow-dried samples were re-dissolved in 100 µL of methanol, sonicated for 1 min, and centrifuged for 7 min.
Compound Discovery 3.3 was used for data processing. The MS spectrometric features mainly include retention time, exact mass, peak intensity, and fragment ions. The data processing mainly included selecting spectra, aligning retention times, creating pattern traces, creating fish traces, generating expected compounds, finding expected compounds, grouping expected compounds, fish scoring, and marking background compounds. The mass tolerance is less than 5 ppm.

| SMILES | Rat and LM* (matrices in which DH or the metabolite was detected) |
| --- | --- |
| CN(C)c1ccc(C2NCCc3cc(O)c(O)cc32)cc1 (stereo not shown) [M2–A] | U*, LM* |
| CNc1ccc(C2NCCc3cc(OC)c(OC)cc32)cc1 (stereo not shown) [M4–C] | P*, U*, LM* |
| COc1cc2c(cc1OC)C(c1ccc(N)cc1)NCC2 (stereo not shown) [M2–B] | P*, U*, LM* |
| CN(C)c1ccc(-c2nccc3cc(O)c(O)cc23)cc1 [M6–A] | F* |
